This assay deals with IKZF2 (Homo sapiens (Human), UniProt Q96SW2+Q9UKS7). Kind of assay: IKZF2 HiBiT Assay (Jurkat-IKZF2-HiBiT cell line). The assay is classed as cell-based. Particulars: Jurkat-IKZF2-HiBiT cells, 24 hours; for DC50: read-out: HiBit assay degradation analysis DC50; for Dmax: read-out: HiBit assay degradation analysis Dmax. Put shortly:
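Jurkat cells carrying HiBiT-tagged IKZF2 were exposed to serially diluted compound for 24 h at 37 °C. Remaining IKZF2 was measured by Nano-Glo HiBiT lytic luminescence after 10-20 min at room temperature. Signal was normalized to DMSO, and IC50 came from a four-parameter variable-slope fit.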

One may read the DC50 as the concentration giving 50% degradation. A word on the Dmax: it is the largest share of the target that was removed.

Each structure is given as a SMILES string.

Chain of IKZF2 (Q9UKS7 whole entry): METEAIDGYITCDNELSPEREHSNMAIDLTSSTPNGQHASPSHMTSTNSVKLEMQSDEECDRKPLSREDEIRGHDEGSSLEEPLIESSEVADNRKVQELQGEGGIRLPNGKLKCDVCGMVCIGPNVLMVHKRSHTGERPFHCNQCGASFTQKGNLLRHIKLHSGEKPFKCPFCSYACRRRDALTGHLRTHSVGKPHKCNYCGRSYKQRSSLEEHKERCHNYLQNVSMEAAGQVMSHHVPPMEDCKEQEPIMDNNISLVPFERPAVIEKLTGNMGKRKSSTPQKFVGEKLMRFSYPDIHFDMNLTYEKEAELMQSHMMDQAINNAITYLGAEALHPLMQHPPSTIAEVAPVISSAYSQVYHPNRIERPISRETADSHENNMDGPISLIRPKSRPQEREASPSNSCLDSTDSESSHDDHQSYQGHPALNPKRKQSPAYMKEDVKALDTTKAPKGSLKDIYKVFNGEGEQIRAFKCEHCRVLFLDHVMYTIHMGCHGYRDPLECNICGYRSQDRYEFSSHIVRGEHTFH
Chain of IKZF2 (Q96SW2 whole entry): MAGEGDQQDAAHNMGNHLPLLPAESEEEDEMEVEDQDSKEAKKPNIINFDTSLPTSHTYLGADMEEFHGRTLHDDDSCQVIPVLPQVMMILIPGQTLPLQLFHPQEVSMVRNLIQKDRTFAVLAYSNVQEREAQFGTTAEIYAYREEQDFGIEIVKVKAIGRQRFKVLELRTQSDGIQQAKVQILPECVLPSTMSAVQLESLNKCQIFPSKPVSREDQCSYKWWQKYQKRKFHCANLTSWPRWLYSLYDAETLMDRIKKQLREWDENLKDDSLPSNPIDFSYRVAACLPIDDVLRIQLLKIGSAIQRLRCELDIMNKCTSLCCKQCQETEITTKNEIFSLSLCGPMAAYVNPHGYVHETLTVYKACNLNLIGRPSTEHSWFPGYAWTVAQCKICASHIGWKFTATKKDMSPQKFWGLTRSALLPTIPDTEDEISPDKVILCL
Chain of IKZF2 (Q16531 whole entry partner): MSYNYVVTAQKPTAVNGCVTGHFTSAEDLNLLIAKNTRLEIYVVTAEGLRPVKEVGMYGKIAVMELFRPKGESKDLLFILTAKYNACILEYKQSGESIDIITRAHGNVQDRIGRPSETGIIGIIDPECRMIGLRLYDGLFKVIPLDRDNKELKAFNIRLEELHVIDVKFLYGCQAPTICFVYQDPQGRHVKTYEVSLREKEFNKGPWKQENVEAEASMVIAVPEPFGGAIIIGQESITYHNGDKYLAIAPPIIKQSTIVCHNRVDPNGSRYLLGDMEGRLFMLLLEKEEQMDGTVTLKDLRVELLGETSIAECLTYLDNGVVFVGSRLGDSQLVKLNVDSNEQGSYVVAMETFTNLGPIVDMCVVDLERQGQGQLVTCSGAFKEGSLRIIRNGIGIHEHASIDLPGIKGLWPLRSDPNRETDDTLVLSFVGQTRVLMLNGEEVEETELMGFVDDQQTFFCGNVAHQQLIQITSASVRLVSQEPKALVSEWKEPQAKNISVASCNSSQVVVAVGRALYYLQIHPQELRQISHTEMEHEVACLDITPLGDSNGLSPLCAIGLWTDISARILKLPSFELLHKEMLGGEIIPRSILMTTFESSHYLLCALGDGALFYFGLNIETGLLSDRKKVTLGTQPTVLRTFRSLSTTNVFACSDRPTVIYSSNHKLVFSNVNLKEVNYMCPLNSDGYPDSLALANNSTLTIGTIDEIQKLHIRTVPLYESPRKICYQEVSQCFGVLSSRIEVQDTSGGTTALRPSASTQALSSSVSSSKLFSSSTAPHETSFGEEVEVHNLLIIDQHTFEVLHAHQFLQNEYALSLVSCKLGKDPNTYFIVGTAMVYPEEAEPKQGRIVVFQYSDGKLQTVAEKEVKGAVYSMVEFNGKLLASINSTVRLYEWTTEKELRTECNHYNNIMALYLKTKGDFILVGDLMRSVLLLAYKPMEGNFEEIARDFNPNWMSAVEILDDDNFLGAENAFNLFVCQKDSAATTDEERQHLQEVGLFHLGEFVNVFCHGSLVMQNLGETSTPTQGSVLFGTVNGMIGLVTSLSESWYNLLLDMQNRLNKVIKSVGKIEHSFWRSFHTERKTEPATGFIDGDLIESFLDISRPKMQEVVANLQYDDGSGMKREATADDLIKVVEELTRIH

As to `Cc1nnc(-c2cccc(CN3CCC4(CC3)COc3c4ccc4c3CN(C3CCC(=O)NC3=O)C4=O)c2)o1` (centres unmarked) [Compound A151, 3-(1′-(3-(5-methyl-1,3,4-oxadiazol-2-yl)benzyl)-6-oxo-6,8-dihydro-2H,7H-spiro[furo[2,3-e]isoindole-3,4′-piperidin]-7-yl)piperidine-2,6-dione], the DC50 is 200 to 500 nM and the Dmax was 40 to 60%.

`Cn1c(=O)oc2ccc(CN3CCC4(CC3)COc3c4ccc4c3CN(C3CCC(=O)NC3=O)C4=O)cc21` (centres unmarked) [Compound A175, 3-(1′-((3-methyl-2-oxo-2,3-dihydrobenzo[d]oxazol-5-yl)methyl)-6-oxo-6,8-dihydro-2H,7H-spiro[furo[2,3-e]isoindole-3,4′-piperidin]-7-yl)piperidine-2,6-dione]: the DC50 is above 500 nM and the maximal degradation (Dmax) was below 40%.

`O=C1CC[C@H](N2Cc3c(ccc4c3OCC43CCN(C[C@@H]4C[C@H]4c4ccc(F)cc4)CC3)C2=O)C(=O)N1` [Compound A362, (S)-3-(1′-(((1R,2R)-2-(4-fluorophenyl)cyclopropyl)methyl)-6-oxo-6,8-dihydro-2H,7H-spiro[furo[2,3-e]isoindole-3,4′-piperidin]-7-yl)piperidine-2,6-dione]: the 50% degradation concentration (DC50) was above 500 nM and the greatest degradation seen (Dmax) was 40 to 60%.

For `O=C1CCC(N2Cc3c(ccc4c3OCC43CCN(Cc4n[nH]c5ccccc45)CC3)C2=O)C(=O)N1` (centres unmarked) [Compound A227, 3-(1′-((1H-indazol-3-yl)methyl)-6-oxo-6,8-dihydro-2H,7H-spiro[furo[2,3-e]isoindole-3,4′-piperidin]-7-yl)piperidine-2,6-dione], the DC50 is above 500 nM and the Dmax was 40 to 60%.

Regarding `O=C1CCC(N2Cc3c(ccc4c3OCC43CCN(Cc4cnn(Cc5ccccc5F)c4)CC3)C2=O)C(=O)N1` (centres unmarked) [Compound A239, 3-(1′-((1-(2-fluorobenzyl)-1H-pyrazol-4-yl)methyl)-6-oxo-6,8-dihydro-2H,7H-spiro[furo[2,3-e]isoindole-3,4′-piperidin]-7-yl)piperidine-2,6-dione], the DC50 is below 50 nM and the Dmax is 60 to 80%.

Take `O=C1CCC(N2Cc3c(ccc4c3OCC43CCN(Cc4cnn(CC5CC5)c4)CC3)C2=O)C(=O)N1` (centres unmarked) [Compound A231, 3-(1′-((1-(cyclopropylmethyl)-1H-pyrazol-4-yl)methyl)-6-oxo-6,8-dihydro-2H,7H-spiro[furo[2,3-e]isoindole-3,4′-piperidin]-7-yl)piperidine-2,6-dione]: the DC50 was in the range of 200 to 500 nM and the Dmax lay in the range of 60 to 80%.

With `N#Cc1cccc(CN2CCC3(CC2)COc2c3ccc3c2CN(C2CCC(=O)NC2=O)C3=O)c1` (centres unmarked) [Compound A219, 3-((7-(2,6-dioxopiperidin-3-yl)-6-oxo-7,8-dihydro-2H,6H-spiro[furo[2,3-e]isoindole-3,4′-piperidin]-1′-yl)methyl)benzonitrile], the 50% degradation concentration (DC50) lay within 200 to 500 nM and the Dmax is 40 to 60%.

`O=C1CCC(N2Cc3c(ccc4c3OCC43CCN(CC4CCC(F)(F)CC4)CC3)C2=O)C(=O)N1` (centres unmarked) [Compound A17, 3-(1′-((4,4-difluorocyclohexyl)methyl)-6-oxo-6,8-dihydro-2H,7H-spiro[furo[2,3-e]isoindole-3,4′-piperidin]-7-yl)piperidine-2,6-dione]: the DC50 is above 500 nM and the Dmax lay in the range of 40 to 60%.

On to `O=C1CCC(N2Cc3c(ccc4c3OCC43CCN(Cc4ccnn4-c4ccccc4)CC3)C2=O)C(=O)N1` (centres unmarked) [Compound A246, 3-(6-oxo-1′-((1-phenyl-1H-pyrazol-5-yl)methyl)-6,8-dihydro-2H,7H-spiro[furo[2,3-e]isoindole-3,4′-piperidin]-7-yl)piperidine-2,6-dione], for which the DC50 was above 500 nM and the Dmax is below 40%.

With `O=C1CCC(N2Cc3c(ccc4c3OCC43CCN(Cc4ccc(-n5cccn5)cc4)CC3)C2=O)C(=O)N1` (centres unmarked) [Compound A222, 3-(1′-(4-(1H-pyrazol-1-yl)benzyl)-6-oxo-6,8-dihydro-2H,7H-spiro[furo[2,3-e]isoindole-3,4′-piperidin]-7-yl)piperidine-2,6-dione], the DC50 is above 500 nM and the Dmax fell in the range of 40 to 60%.

As for `O=C1CCC(N2Cc3c(ccc4c3OCC43CCN(Cc4ccc5occc5c4)CC3)C2=O)C(=O)N1` (centres unmarked) [Compound A120, 3-(1′-(benzofuran-5-ylmethyl)-6-oxo-6,8-dihydro-2H,7H-spiro[furo[2,3-e]isoindole-3,4′-piperidin]-7-yl)piperidine-2,6-dione], the DC50 was below 50 nM and the Dmax was in the range of 60 to 80%.

In the case of `CO[C@H]1C[C@H](n2cc(-c3cccc(CN4CCC5(CC4)COc4c5ccc5c4CN([C@H]4CCC(=O)NC4=O)C5=O)c3)cn2)C1` [Compound A297, (S)-3-(1′-(3-(1-((1r,3r)-3-methoxycyclobutyl)-1H-pyrazol-4-yl)benzyl)-6-oxo-6,8-dihydro-2H,7H-spiro[furo[2,3-e]isoindole-3,4′-piperidin]-7-yl)piperidine-2,6-dione], the DC50 was below 50 nM and the Dmax was 60 to 80%.

Consider `O=C1CCC(N2Cc3c(ccc4c3OCC43CCN(Cc4ccc5scnc5c4)CC3)C2=O)C(=O)N1` (centres unmarked) [Compound A54, 3-(1′-(benzo[d]thiazol-5-ylmethyl)-6-oxo-6,8-dihydro-2H,7H-spiro[furo[2,3-e]isoindole-3,4′-piperidin]-7-yl)piperidine-2,6-dione], for which the DC50 is 50 to 200 nM and the maximal degradation (Dmax) was 40 to 60%.

Take `O=C1CCC(N2Cc3c(ccc4c3OCC43CCN(Cc4cccc5[nH]cnc45)CC3)C2=O)C(=O)N1` (centres unmarked) [Compound A71, 3-(1′-((1H-benzo[d]imidazol-4-yl)methyl)-6-oxo-6,8-dihydro-2H,7H-spiro[furo[2,3-e]isoindole-3,4′-piperidin]-7-yl)piperidine-2,6-dione]: the DC50 was above 500 nM and the Dmax is 40 to 60%.

Turning to `Cn1ncc2cccc(CN3CCC4(CC3)COc3c4ccc4c3CN(C3CCC(=O)NC3=O)C4=O)c21` (centres unmarked) [Compound A53, 3-(1′-((1-methyl-1H-indazol-7-yl)methyl)-6-oxo-6,8-dihydro-2H,7H-spiro[furo[2,3-e]isoindole-3,4′-piperidin]-7-yl)piperidine-2,6-dione], the DC50 was above 500 nM and the Dmax is 40 to 60%.

For `O=C1CCC(N2Cc3c(ccc4c3OCC43CCN(CC4C5CC6CC(C5)CC4C6)CC3)C2=O)C(=O)N1` (centres unmarked) [Compound A23, 3-(1′-(((1r,3r,5r,7r)-adamantan-2-yl)methyl)-6-oxo-6,8-dihydro-2H,7H-spiro[furo[2,3-e]isoindole-3,4′-piperidin]-7-yl)piperidine-2,6-dione], the DC50 is above 500 nM and the greatest degradation seen (Dmax) is below 40%.

With `O=C1CCC(N2Cc3c(ccc4c3OCC43CCN(Cc4ccc(OCc5ccccc5)cn4)CC3)C2=O)C(=O)N1` (centres unmarked) [Compound A338, 3-(1′-((5-(benzyloxy)pyridin-2-yl)methyl)-6-oxo-6,8-dihydro-2H,7H-spiro[furo[2,3-e]isoindole-3,4′-piperidin]-7-yl)piperidine-2,6-dione], the DC50 is above 500 nM and the Dmax was below 40%.

With `O=C1CCC(N2Cc3c(ccc4c3OCC43CCN(Cc4cnn5c4CCC5)CC3)C2=O)C(=O)N1` (centres unmarked) [Compound A244, 3-(1′-((5,6-dihydro-4H-pyrrolo[1,2-b]pyrazol-3-yl)methyl)-6-oxo-6,8-dihydro-2H,7H-spiro[furo[2,3-e]isoindole-3,4′-piperidin]-7-yl)piperidine-2,6-dione], the DC50 lay within 200 to 500 nM and the Dmax was 60 to 80%.

As for `CC(C)(C)c1cccc(CN2CCC3(CC2)COc2c3ccc3c2CN(C2CCC(=O)NC2=O)C3=O)c1` (centres unmarked) [Compound A88, 3-(1′-(3-(tert-butyl)benzyl)-6-oxo-6,8-dihydro-2H,7H-spiro[furo[2,3-e]isoindole-3,4′-piperidin]-7-yl)piperidine-2,6-dione], the DC50 was above 500 nM and the Dmax was below 40%.

Take `O=C1CCC(N2Cc3c(ccc4c3OCC43CCN(Cc4cccc(-c5ccccc5)c4)CC3)C2=O)C(=O)N1` (centres unmarked) [Compound A102, 3-(1′-([1,1′-biphenyl]-3-ylmethyl)-6-oxo-6,8-dihydro-2H,7H-spiro[furo[2,3-e]isoindole-3,4′-piperidin]-7-yl)piperidine-2,6-dione]: the DC50 fell in the range of 200 to 500 nM and the Dmax was 40 to 60%.

Turning to `CCC(c1ccccc1)N1CCC2(CC1)COc1c2ccc2c1CN(C1CCC(=O)NC1=O)C2=O` (centres unmarked) [Compound A330, 3-(6-oxo-1′-(1-phenylpropyl)-6,8-dihydro-2H,7H-spiro[furo[2,3-e]isoindole-3,4′-piperidin]-7-yl)piperidine-2,6-dione], the DC50 was below 50 nM and the Dmax was in the range of 60 to 80%.

Take `O=C1CCC(N2Cc3c(ccc4c3OCC43CCN(Cc4cnn(S(=O)(=O)c5ccc(Cl)cc5)c4)CC3)C2=O)C(=O)N1` [Compound A352, (S)-3-(1′-((1-((4-chlorophenyl)sulfonyl)-1H-pyrazol-4-yl)methyl)-6-oxo-6,8-dihydro-2H,7H-spiro[furo[2,3-e]isoindole-3,4′-piperidin]-7-yl)piperidine-2,6-dione]: the DC50 is 200 to 500 nM.

For `O=C1CC[C@H](N2Cc3c(ccc4c3OCC43CCN(C4Cc5ccccc5C4)CC3)C2=O)C(=O)N1` [Compound A275, (S)-3-(1′-(2,3-dihydro-1H-inden-2-yl)-6-oxo-6,8-dihydro-2H,7H-spiro[furo[2,3-e]isoindole-3,4′-piperidin]-7-yl)piperidine-2,6-dione], the DC50 was above 500 nM and the Dmax lay within 40 to 60%.

`O=C1CCC(N2Cc3c(ccc4c3OCC43CCN(Cc4cccc5nccnc45)CC3)C2=O)C(=O)N1` (centres unmarked) [Compound A47, 3-(6-oxo-1′-(quinoxalin-5-ylmethyl)-6,8-dihydro-2H,7H-spiro[furo[2,3-e]isoindole-3,4′-piperidin]-7-yl)piperidine-2,6-dione]: the DC50 is above 500 nM and the Dmax lay in the range of 40 to 60%.

These data come from US20250215012A1, “IKZF2 DEGRADERS AND USES THEREOF” (REGENTS OF THE UNIVERSITY OF MICHIGAN, priority 2022, published 2025).
